Patent US9249125B2, “Pyrazole derivatives as p38 MAP inhibitors” (RESPIVERT LIMITED, priority 2012, dated 2016)

Columns and labels:
[1] = target: Syk (Homo sapiens (Human), UniProt P43405); test: Syk enzyme inhibition (FRET, Z-LYTE); format: biochemical
Experimental: (§1) The enzyme inhibitory activities of compounds disclosed herein are determined by FRET using synthetic peptides labelled with both donor and acceptor fluorophores (Z-LYTE, Invitrogen Ltd., Paisley, UK).
(§2) The relevant enzyme (3000 ng/mL or 2000 ng/mL respectively, 2.5 μL) is incubated with the test compound (either 4 μg/mL, 0.4 μg/mL, 0.04 μg/mL, or 0.004 μg/mL, 2.5 μL each) for 2 hr at RT. The FRET peptides (8 μM, 2.5 μL), and appropriate ATP solutions (2.5 μL, 800 μM for c-Src, and 60 μM ATP for Syk) are then added to the enzymes/compound mixtures and incubated for 1 hr. Development reagent (protease, 5 μL) is added for 1 hr prior to detection in a fluorescence microplate reader (Varioskan® Flash, ThermoFisher Scientific).
(§3) In all cases, the site-specific protease cleaves non-phosphorylated peptide only and eliminates the FRET signal. Phosphorylation levels of each reaction are calculated using the ratio of coumarin emission (donor) over fluorescein emission (acceptor), for which low ratios indicate high phosphorylation and high ratios indicate low phosphorylation levels.

[2] = target: GSK3α (Homo sapiens (Human), UniProt P49840); test: GSK 3α enzyme inhibition (FRET, Z-LYTE); format: biochemical
GSK3α, sequence (P49840 whole entry): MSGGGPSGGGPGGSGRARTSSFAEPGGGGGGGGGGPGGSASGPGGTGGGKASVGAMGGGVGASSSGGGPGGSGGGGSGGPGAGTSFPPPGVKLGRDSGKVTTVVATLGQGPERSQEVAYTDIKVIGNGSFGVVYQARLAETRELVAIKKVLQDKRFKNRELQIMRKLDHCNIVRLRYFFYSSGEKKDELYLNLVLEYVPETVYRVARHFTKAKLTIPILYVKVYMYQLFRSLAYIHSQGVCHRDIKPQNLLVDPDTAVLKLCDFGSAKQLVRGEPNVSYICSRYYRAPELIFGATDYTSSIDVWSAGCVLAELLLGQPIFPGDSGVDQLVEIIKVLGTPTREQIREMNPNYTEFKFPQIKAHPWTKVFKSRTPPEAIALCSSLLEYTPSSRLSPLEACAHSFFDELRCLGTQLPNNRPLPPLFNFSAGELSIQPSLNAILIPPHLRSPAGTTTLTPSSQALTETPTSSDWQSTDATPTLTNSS
Experimental: as §1
The inhibitory activities of compounds of the invention against the GSK 3α enzyme isoform (Invitrogen), are evaluated by determining the level of activation/phosphorylation of the target peptide. The GSK3-α protein (500 ng/mL, 2.5 μL) is mixed with the test compound (2.5 μL at either 4 μg/mL, 0.4 μg/mL, 0.04 μg/mL, or 0.004 μg/mL) for 2 hr at RT. The FRET peptide (8 μM, 2.5 μL), which is a phosphorylation target for GSK3α, and ATP (40 μM, 2.5 μL) are then added to the enzyme/compound mixture and the resulting mixture incubated for 1 hr. Development reagent (protease, 5 μL) is added for 1 hr prior to detection in a fluorescence microplate reader (Varioskan® Flash, ThermoFisher Scientific).
as §3

[3] = system: Poly I:C-induced ICAM-1 expression in BEAS2B cells; test: Poly I:C-induced ICAM-1 expression in BEAS2B cells; format: cell-based; details: Homo sapiens, BEAS-2B, read-out: Poly IC induced ICAM1 in BEAS2B IC50
Experimental: Poly I:C is used in these studies as a simple, RNA virus mimic. Poly I:C-Oligofectamine mixture (1 μg/mL Poly I:C, ±2% Oligofectamine, 25 uL) (Invivogen Ltd., San Diego, Calif., and Invitrogen, Carlsbad, Calif., respectively) is transfected into BEAS2B cells (human bronchial epithelial cells, ATCC). Cells are pre-incubated with final concentrations of test compounds for 2 hr and the level of ICAM1 expression on the cell surface is determined by cell-based ELISA. At a time point 18 hr after poly I:C transfection, cells are fixed with 4% formaldehyde in PBS (100 μL) and then endogenous peroxidase is quenched by the addition of washing buffer (100 μL, 0.05% Tween in PBS: PBS-Tween) containing 0.1% sodium azide and 1% hydrogen peroxide. Cells are washed with wash-buffer (3×200 μL). and after blocking the wells with 5% milk in PBS-Tween (100 μL) for 1 hr, the cells are incubated with anti-human ICAM-1 antibody (50 μL) (Cell Signaling Technology, Danvers, Mass.) in 1% BSA PBS overnight at 4° C.
The cells are washed with PBS-Tween (3×200 μL) and incubated with the secondary antibody (100 μL) (HRP-conjugated anti-rabbit IgG, Dako Ltd., Glostrup, Denmark). The cells are then incubated with of substrate (50 μL) for 2-20 min, followed by the addition of stop solution (50 μL, 1N H2SO4). The ICAM-1 signal is detected by reading and reading the absorbance at 450 nm against a reference wavelength of 655 nm using a spectrophotometer. The cells are then washed with PBS-Tween (3×200 μL) and total cell numbers in each well are determined by reading absorbance at 595 nm after Crystal Violet staining (50 μL of a 2% solution in PBS) and elution by 1% SDS solution (100 μL) in distilled water. The measured OD 450-655 readings are corrected for cell number by dividing with the OD595 reading in each well.

[4] = system: d-U937 cells; test: Cell viability: MTT assay; format: cell-based, human; details: 1 μg/mL
Experimental: Differentiated U937 cells are pre-incubated with each test compound (final concentration 1 μg/mL or 10 μg/mL in 200 μL media indicated below) under two protocols: the first for 4 hr in 5% FCS RPMI1640 media and the second in 10% FCS RPMI1640 media for 24 h. The supernatant is replaced with new media (200 μL) and MTT stock solution (10 μL, 5 mg/mL) is added to each well. After incubation for 1 hr the media are removed, DMSO (200 μL) is added to each well and the plates are shaken lightly for 1 hr prior to reading the absorbance at 550 nm. The percentage loss of cell viability is calculated for each well relative to vehicle (0.5% DMSO) treatment. Consequently an apparent increase in cell viability for drug treatment relative to vehicle is tabulated as a negative percentage.

[5] = target: p38 MAPKα (Homo sapiens (Human), UniProt Q16539); test: p38 MAPKα enzyme inhibition (FRET, Z-LYTE); format: biochemical
p38 MAPKα, sequence (Q16539 whole entry): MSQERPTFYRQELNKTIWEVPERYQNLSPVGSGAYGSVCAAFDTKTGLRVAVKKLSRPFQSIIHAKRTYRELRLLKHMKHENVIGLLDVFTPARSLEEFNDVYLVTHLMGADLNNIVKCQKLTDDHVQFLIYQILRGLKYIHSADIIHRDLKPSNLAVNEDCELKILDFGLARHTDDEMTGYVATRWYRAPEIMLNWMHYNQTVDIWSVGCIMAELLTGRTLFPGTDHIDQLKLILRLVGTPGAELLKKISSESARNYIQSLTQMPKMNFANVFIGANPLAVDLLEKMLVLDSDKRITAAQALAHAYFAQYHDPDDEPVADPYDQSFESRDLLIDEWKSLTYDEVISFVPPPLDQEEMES
Experimental: as §1
The inhibitory activities of test compounds against the p38 MAPKα isoform (MAPK14: Invitrogen), are evaluated indirectly by determining the level of activation/phosphorylation of the down-stream molecule, MAPKAP-K2. The p38 MAPKα protein (80 ng/mL, 2.5 μL) is mixed with the test compound (2.5 μL of either 4 μg/mL, 0.4 μg/mL, 0.04 μg/mL or 0.004 μg/mL) for 2 hr at RT. […] The mixture is incubated for 1 hr at RT. Development reagent (protease, 5 μL) is added for 1 hr prior to detection in a fluorescence microplate reader (Varioskan® Flash, ThermoFisher Scientific).
as §3

[6] = target: cSrc (Homo sapiens (Human), UniProt P12931); test: c-Src enzyme inhibition (FRET, Z-LYTE); format: biochemical
cSrc, sequence (P12931 whole entry, looked up): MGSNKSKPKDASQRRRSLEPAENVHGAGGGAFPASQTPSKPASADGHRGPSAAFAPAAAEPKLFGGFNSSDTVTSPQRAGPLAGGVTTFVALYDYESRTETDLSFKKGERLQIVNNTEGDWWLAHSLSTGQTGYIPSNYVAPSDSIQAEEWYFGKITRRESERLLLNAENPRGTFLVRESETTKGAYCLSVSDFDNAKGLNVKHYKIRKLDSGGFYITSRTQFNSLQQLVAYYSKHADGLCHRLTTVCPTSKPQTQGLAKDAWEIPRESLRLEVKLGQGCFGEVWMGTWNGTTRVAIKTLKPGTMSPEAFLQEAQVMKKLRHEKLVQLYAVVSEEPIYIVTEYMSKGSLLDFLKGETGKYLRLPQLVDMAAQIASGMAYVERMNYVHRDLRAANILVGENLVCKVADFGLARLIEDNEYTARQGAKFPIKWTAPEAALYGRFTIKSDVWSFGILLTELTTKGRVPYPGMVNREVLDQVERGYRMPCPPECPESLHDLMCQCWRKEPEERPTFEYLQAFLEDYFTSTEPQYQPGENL
Experimental: as §1, §2, §3

[7] = system: LPS-induced IL-8 release in d-U937 cells; test: LPS-induced IL-8 release in d-U937 cells; format: cell-based; details: Homo sapiens, dU937, read-out: LPS Induced Release of Cytokine in d-937 Cells IL-8 IC50
Experimental: U937 cells, a human monocytic cell line, are differentiated into macrophage-type cells by incubation with PMA (100 ng/mL) for 48 to 72 hr. Cells are pre-incubated with final concentrations of test compound for 2 hr and are then stimulated with LPS (0.1 μg/mL) (from E. coli: O111:B4, Sigma) for 4 hr. The supernatant is collected for determination of TNFα and IL-8 concentrations by sandwich ELISA (Duo-set, R&D systems). […] The relative 50% effective concentration (REC50) is determined from the resultant concentration-response curve. The inhibition of IL-8 production is calculated at each concentration of test compound by comparison with vehicle control. […] (b) LPS-Induced TNFα/IL-8 Release in PBMC Cells

| IC50 [1] [nM] | IC50 [2] [nM] | IC50 [5] [nM] | IC50 [6] [nM] | IC50 [7] [nM] | SMILES | IC50 [3] [nM] | MTT Assay Cell viability at time point in d-U937 cells 4 h [4] | MTT Assay Cell viability at time point in d-U937 cells 24 h [4] |
| --- | --- | --- | --- | --- | --- | --- | --- | --- |
| < 1 | 3040 | 40 | 3 | – | Cc1cc(Nc2cc(Oc3ccc(NC(=O)Nc4cc(C(C)(C)C)nn4-c4ccc(OCCN5CCOCC5)cc4)c4ccccc34)ccn2)cc2cn[nH]c12 [Example 68] | 7.6 | −ve (−ve and +ve indicate that the value is below and above respectively, the no significant effect threshold, defined as 30% inhibition at 1 μg/mL at the time point indicated.) | −ve (−ve and +ve indicate that the value is below and above respectively, the no significant effect threshold, defined as 30% inhibition at 1 μg/mL at the time point indicated.) |
| 4 | 1800 | 69 | 5 | 2.6 | Cc1cc(Nc2nccc(Oc3ccc(NC(=O)Nc4cc(C(C)(C)C)nn4-c4ccc(OCCN5CCOCC5)cc4)c4ccccc34)n2)cc2cn[nH]c12 [Example 73, 1-(3-(tert-butyl)-1-(4-(2-morpholinoethoxy)phenyl)-1H-pyrazol-5-yl)-3-(4-((2-((7-methyl-1H-indazol-5-yl)amino)pyrimidin-4-yl)oxy)naphthalen-1-yl)urea] | 2.2 | −ve (−ve and +ve indicate that the value is below and above respectively, the no significant effect threshold, defined as 30% inhibition at 1 μg/mL at the time point indicated.) | −ve (−ve and +ve indicate that the value is below and above respectively, the no significant effect threshold, defined as 30% inhibition at 1 μg/mL at the time point indicated.) |
| 1 | 1210 | 20 | 1 | 1.6 | Cc1cc(Nc2nccc(Oc3ccc(NC(=O)Nc4cc(C(C)(C)C)nn4-c4ccc(OCCN5CCOCC5)nc4)c4ccccc34)n2)cc2cn[nH]c12 [Example 91, 1-(3-(tert-butyl)-1-(6-(2-morpholinoethoxy)pyridin-3-yl)-1H-pyrazol-5-yl)-3-(4-((2-((7-methyl-1H-indazol-5-yl)amino)pyrimidin-4-yl)oxy)naphthalen-1-yl)urea] | 1.9 | −ve (−ve and +ve indicate that the value is below and above respectively, the no significant effect threshold, defined as 30% inhibition at 1 μg/mL at the time point indicated.) | −ve (−ve and +ve indicate that the value is below and above respectively, the no significant effect threshold, defined as 30% inhibition at 1 μg/mL at the time point indicated.) |

The next lines start with the molecule.

| SMILES | IC50 [1] [nM] | IC50 [2] [nM] | IC50 [5] [nM] | IC50 [6] [nM] | IC50 [7] [nM] | IC50 [3] [nM] | MTT Assay Cell viability at time point in d-U937 cells 4 h [4] | MTT Assay Cell viability at time point in d-U937 cells 24 h [4] |
| --- | --- | --- | --- | --- | --- | --- | --- | --- |
| CC(C)(C)c1cc(NC(=O)Nc2ccc(Oc3ccnc(Nc4ccc5[nH]ncc5c4)c3)c3ccccc23)n(-c2cccc(OCCN3CCOCC3)c2)n1 [Example 52] | 18 | 4970 | 22 | 3 | – | 10.2 | −ve (−ve and +ve indicate that the value is below and above respectively, the no significant effect threshold, defined as 30% inhibition at 1 μg/mL at the time point indicated.) | −ve (−ve and +ve indicate that the value is below and above respectively, the no significant effect threshold, defined as 30% inhibition at 1 μg/mL at the time point indicated.) |
| Cc1cc(Nc2cc(Oc3ccc(NC(=O)Nc4cc(C(C)(C)C)nn4-c4ccc(OCCN(C)C)cc4)c4ccccc34)ccn2)cc2cn[nH]c12 [Example 58] | – | 1260 | < 1 | < 1 | – | 8.3 | −ve (−ve and +ve indicate that the value is below and above respectively, the no significant effect threshold, defined as 30% inhibition at 1 μg/mL at the time point indicated.) | −ve (−ve and +ve indicate that the value is below and above respectively, the no significant effect threshold, defined as 30% inhibition at 1 μg/mL at the time point indicated.) |
| COc1ccc(-n2nc(C3CCOC3)cc2NC(=O)Nc2ccc(Oc3ccnc(Nc4ccc5[nH]ncc5c4)n3)c3ccccc23)cc1 (stereo not drawn) [Example 8, 1-(4-((2-((1H-Indazol-5-yl)amino)pyrimidin-4-yl)oxy)naphthalen-1-yl)-3-(1-(4-methoxyphenyl)-3-(tetrahydrofuran-3-yl)-1H-pyrazol-5-yl)urea] | 8 | 837 | 7 | 2 | 3.6 | 16.8 | −ve (−ve and +ve indicate that the value is below and above respectively, the no significant effect threshold, defined as 30% inhibition at 1 μg/mL at the time point indicated.) | −ve (−ve and +ve indicate that the value is below and above respectively, the no significant effect threshold, defined as 30% inhibition at 1 μg/mL at the time point indicated.) |
| CC(C)c1cc(NC(=O)Nc2ccc(Oc3ccnc(Nc4ccc5[nH]ncc5c4)c3)c3ccccc23)n(-c2cccc(OCCN3CCOCC3)c2)n1 [Example 51] | < 1 | 4900 | 2 | < 1 | – | 23.8 | −ve (−ve and +ve indicate that the value is below and above respectively, the no significant effect threshold, defined as 30% inhibition at 1 μg/mL at the time point indicated.) | −ve (−ve and +ve indicate that the value is below and above respectively, the no significant effect threshold, defined as 30% inhibition at 1 μg/mL at the time point indicated.) |
